Assay results reported in the NIST ThermoML archive (doi:10.1021/je500380x).
Numbers after ± are expanded uncertainties.

Assay: mn = molality of the nth substance listed, in mol/kg
Details: 100 kPa, Liquid; for viscosity: Falling or rolling sphere viscometry; for mass density: Vibrating tube method; for electrical conductivity: Alternating current cell with electrodes

CCC(=O)OCCN1CCNCC1 [2-(piperazin-1-yl)ethyl propionate] + O
Details | electrical conductivity, 313.15 K [S/m] | electrical conductivity, 318.15 K [S/m] | mass density, 308.15 K [kg/m3] | mass density, 313.15 K [kg/m3] | viscosity, 308.15 K [mPa·s] | viscosity, 313.15 K [mPa·s]
m1 = 0.05 | 0.359 ± 0.004 | 0.392 ± 0.004 | 995.91 ± 0.11 | 994.07 ± 0.11 | – | 0.687 ± 0.009
m1 = 0.0999 | 0.651 ± 0.007 | 0.711 ± 0.007 | 997.73 ± 0.11 | 995.89 ± 0.11 | – | 0.714 ± 0.009
m1 = 0.1996 | 1.143 ± 0.011 | 1.25 ± 0.013 | 1001.37 ± 0.11 | 999.5 ± 0.11 | – | 0.763 ± 0.009
m1 = 0.3 | 1.56 ± 0.016 | 1.707 ± 0.017 | 1005.16 ± 0.11 | 1003.25 ± 0.11 | – | 0.806 ± 0.01
m1 = 0.3997 | 1.903 ± 0.019 | 2.08 ± 0.02 | 1008.83 ± 0.11 | 1006.85 ± 0.11 | – | 0.861 ± 0.011
m1 = 0.5001 | 2.18 ± 0.02 | 2.39 ± 0.02 | 1012.54 ± 0.11 | 1010.55 ± 0.11 | – | 0.928 ± 0.011
m1 = 0.5992 | 2.43 ± 0.02 | 2.66 ± 0.03 | 1016.24 ± 0.11 | 1014.22 ± 0.11 | – | 0.994 ± 0.012
m1 = 0.6993 | 2.62 ± 0.03 | 2.86 ± 0.03 | 1019.8 ± 0.11 | 1017.89 ± 0.11 | – | 1.069 ± 0.013
m1 = 0.7997 | 2.77 ± 0.03 | 3.04 ± 0.03 | 1023.89 ± 0.11 | 1021.76 ± 0.11 | – | 1.159 ± 0.014
m1 = 0.9003 | 2.88 ± 0.03 | 3.17 ± 0.03 | 1027.51 ± 0.11 | 1025.33 ± 0.11 | – | 1.258 ± 0.016
m1 = 0.9988 | 2.96 ± 0.03 | 3.26 ± 0.03 | 1031.34 ± 0.11 | 1029.11 ± 0.11 | 1.524 ± 0.019 | 1.361 ± 0.017
m1 = 1.199 | 3.02 ± 0.03 | 3.34 ± 0.03 | 1038.89 ± 0.11 | 1036.57 ± 0.11 | 1.83 ± 0.023 | 1.623 ± 0.02
m1 = 1.402 | 2.99 ± 0.03 | 3.31 ± 0.03 | 1046.51 ± 0.11 | 1044.07 ± 0.11 | 2.203 ± 0.027 | 1.944 ± 0.024
m1 = 1.6 | 2.84 ± 0.03 | 3.19 ± 0.03 | 1053.82 ± 0.12 | 1051.27 ± 0.12 | 2.745 ± 0.034 | 2.407 ± 0.03
m1 = 1.802 | 2.65 ± 0.03 | 2.96 ± 0.03 | 1061.17 ± 0.12 | 1058.51 ± 0.12 | 3.361 ± 0.041 | 2.925 ± 0.036
m1 = 1.998 | 2.4 ± 0.02 | – | 1068.11 ± 0.12 | 1065.33 ± 0.12 | 4.23 ± 0.052 | 3.651 ± 0.045
m1 = 2.2 | 2.13 ± 0.02 | – | 1074.9 ± 0.12 | 1072.02 ± 0.12 | 5.468 ± 0.067 | 4.68 ± 0.058
m1 = 2.402 | 1.843 ± 0.018 | – | 1081.54 ± 0.12 | 1078.58 ± 0.12 | 7.079 ± 0.087 | 6.032 ± 0.074
m1 = 2.6 | 1.53 ± 0.015 | – | 1087.28 ± 0.12 | 1084.23 ± 0.12 | 10.12 ± 0.12 | 8.455 ± 0.1
m1 = 2.798 | 1.215 ± 0.012 | – | 1092.61 ± 0.12 | 1089.49 ± 0.12 | 13.61 ± 0.17 | 11.32 ± 0.14
m1 = 3.002 | 0.987 ± 0.01 | – | 1097.53 ± 0.13 | 1094.34 ± 0.13 | 18.37 ± 0.23 | 15.06 ± 0.19
